Laboratory results: patent US5258383A, “DC-89 derivatives” (priority 1991, dated 1993)

Experiments:
[1] = tested on: ddY-strain male mice; assay: Acute Toxicity Test; format: in vivo; conditions: intravenous; mortality observed for 14 days
Description: A test compound was intravenously administered to ddY-strain male mice each weighing 20±1 g. MLD (the minimum lethal dose) was determined by observing the mortality for 14 days after the administration.

[2] = tested on: HeLaS3 cells; assay: Growth Inhibitory Effect against HeLaS3 Cells; format: cell-based; conditions: Homo sapiens, HeLa S3; 72 hours, Neutral Red staining
Description: HeLaS3 cells were suspended in a medium comprising MEM medium, 10% fetal calf serum and 2 mM glutamine (hereinafter referred to as medium A) to a concentration of 3×10^4 cells/ml. The cell suspension thus prepared was put into wells of a 96-well microtiter plate in an amount of 0.1 ml per well. After incubation at 37° C. for 20 hours in a CO2 incubator, Compound (I) appropriately diluted with medium A was added to each well in an amount of 0.05 ml.
The cells were further cultured at 37° C. for 72 hours in the CO2 -incubator and the culture supernatant was removed. After the residue was washed once with phosphate buffer saline (PBS), a medium comprising medium A and 0.02% Neutral Red was added in an amount of 0.1 ml per well. Then, the cells were cultured at 37° C. for one hour in the CO2 -incubator, whereby the cells were stained. After removal of the culture supernatant, the residue was washed once with physiological saline. The pigment was extracted with 0.001N hydrochloric acid/30% ethanol and the absorbance of the extract was measured at 550 nm using a microplate reader. The concentration of the test compound at which the growth of the cells is inhibited by 50% (IC50) was calculated by comparing the absorbance of untreated cells with those of the cells treated with the test compound at known concentrations.

[3] = tested on: Sarcoma 180 tumor; assay: Therapeutic Effect against Sarcoma 180 Tumor; format: in vivo, male ddY-strain mice; conditions: intravenous, single administration one day after implantation, determined seven days after implantation
Description: Five male ddY-strain mice each weighing 18 to 20 g were used for each group as test animals, and 5×10^5 Sarcoma 180 tumor cells were implanted subcutaneously into the animals at the axilla. One day after the implantation, 0.2 ml of physiological saline containing Compound (I) at the concentration indicated in Table 2 was intravenously administered to each mouse. T/C [T: average tumor volume (mm^3) of the group treated with the test compound, C: average tumor volume (mm^3) of the control group which received an intravenous administration of 0.2 ml of physiological saline]was determined seven days after the implant

[4] = tested on: melanoma B-16; conditions: against melanoma B-16; cited from earlier work
[5] = tested on: various bacteria; conditions: against various bacteria / a variety of bacteria; cited from earlier work

With `COC(=O)c1c(C)[nH]c2c1C13CC1CN(C(=O)/C=C/c1ccc(OC)cc1)C3=CC2=O` (stereo not shown) [Compound 2] as the compound, how does the “Acute Toxicity (MLD), minimum lethal dose” value (“Acute Toxicity (MLD)” for short) [1] read?
The value was 2.0 mg/kg.

And the IC50 [2]?
Its IC50 is 0.18 nM.

Which results are given for `COC(=O)c1c(C)[nH]c2c(OC(=O)N(C)C)cc3c(c12)C(CBr)CN3C(=O)/C=C/c1ccc(OC)cc1` (stereo not shown) [Compound 3]?
T/C (average tumor volume treated / control) ([3]; 8.0 mg/kg): 0.027; Acute Toxicity (MLD), minimum lethal dose [1]: > 8.0 mg/kg; IC50 [2]: 11 nM

What does the source list for `COC(=O)c1c(C)[nH]c2c(OC(=O)N3CCCCC3)cc3c(c12)C(CBr)CN3C(=O)/C=C/c1ccc(OC)cc1` (stereo not shown) [Compound 4]?
Acute Toxicity (MLD), minimum lethal dose [1]: > 8.0 mg/kg; IC50 [2]: < 0.24 nM

With `COC(=O)c1c(C)[nH]c2c(OC(=O)N3CCCC3)cc3c(c12)C(CBr)CN3C(=O)/C=C/c1ccc(OC)cc1` (stereo not shown) [Compound 5] as the compound, how does the “Acute Toxicity (MLD)” value [1] read?
The value was greater than 8.0 mg/kg.

With `COC(=O)c1c(C)[nH]c2c(OC(=O)N3CCN(C)CC3)cc3c(c12)C(CBr)CN3C(=O)/C=C/c1ccc(OC)cc1` (stereo not shown) [Compound 7] as the compound, how does the “T/C (average tumor volume treated / control)” value ([3]; 4.0 mg/kg) read?
The value was 0.20.

And the “Acute Toxicity (MLD)” value [1]?
The value was 8.0 mg/kg.

With `COC(=O)c1c(C)[nH]c2c(OC(=O)N3CCC(N4CCCCC4)CC3)cc3c(c12)C(CBr)CN3C(=O)/C=C/c1ccc(OC)cc1` (stereo not shown) [Compound 9] as the compound, how does the “T/C (average tumor volume treated / control)” value ([3]; 4.0 mg/kg) read?
Its value is 0.17.

And the “Acute Toxicity (MLD)” value [1]?
The value was 4.0 mg/kg.

With `COC(=O)c1c(C)[nH]c2c(OC(=O)N3CCN(CC(=O)NC(C)C)CC3)cc3c(c12)C(CBr)CN3C(=O)/C=C/c1ccc(OC)cc1` (stereo not shown) [Compound 11] as the compound, how does the “T/C (average tumor volume treated / control)” value ([3]; 8.0 mg/kg) read?
Its value is 0.12.

What about the “Acute Toxicity (MLD)” value [1] of the same compound?
Its value is greater than 8.0 mg/kg.

For `COC(=O)c1c(C)[nH]c2c(OC(=O)Nc3ccccc3)cc3c(c12)C(CBr)CN3C(=O)/C=C/c1ccc(OC)cc1` (stereo not shown) [Compound 12], which “T/C (average tumor volume treated / control)” value ([3]; 2.0 mg/kg) is on record?
Its value is 0.25.

What about the “Acute Toxicity (MLD)” value [1] of the same compound?
The value was 2.0 mg/kg.

For `COC(=O)c1cc2c([nH]1)C(=O)C=C1N(C(=O)c3cc4cc(OC)c(OC)c(OC)c4[nH]3)CC3CC123` (stereo not shown) [DC113], which antitumor activity [4] is on record?
Its antitumor activity is “exhibit an anti-tumor activity against melanoma B-16”.

What about the antibacterial activity [5] of the same compound?
Its antibacterial activity is “show an antibacterial activity against a variety of bacteria”.

What does the source list for `COC(=O)C1(C)NC2=C(C1=O)C13CC1CN(C(=O)c1cc4cc(OC)c(OC)c(OC)c4[nH]1)C3=CC2=O` (stereo not shown) [DC-88A]?
antitumor activity [4]: exhibit an anti-tumor activity against melanoma B-16; antibacterial activity [5]: show an antibacterial activity against a variety of bacteria

With `COC(=O)C1(C)Nc2c(O)cc3c(c2C1=O)C(CCl)CN3C(=O)c1cc2cc(OC)c(OC)c(OC)c2[nH]1` (stereo not shown) [DC-89A2] as the compound, how does the antitumor activity [4] read?
The antitumor activity was “show an antitumor activity against melanoma B-16”.

And the antibacterial activity [5]?
Its antibacterial activity is “exhibit an antibacterial activity against various bacteria”.

For `COC(=O)C1(C)Nc2c(O)cc3c(c2C1=O)CC(Cl)CN3C(=O)c1cc2cc(OC)c(OC)c(OC)c2[nH]1` (stereo not shown) [DC-89Al], which antitumor activity [4] is on record?
Its antitumor activity is “show an antitumor activity against melanoma B-16”.

And the antibacterial activity [5]?
The antibacterial activity was “exhibit an antibacterial activity against various bacteria”.

Which antitumor activity [4] does the source give for `COC(=O)C1(C)Nc2c(O)cc3c(c2C1=O)CC(Br)CN3C(=O)c1cc2cc(OC)c(OC)c(OC)c2[nH]1` (stereo not shown) [DC-89B1] here?
Its antitumor activity is “show an antitumor activity against melanoma B-16”.

What about the antibacterial activity [5] of the same compound?
The antibacterial activity was “exhibit an antibacterial activity against various bacteria”.

Which antitumor activity [4] does the source give for `COC(=O)C1(C)Nc2c(O)cc3c(c2C1=O)C(CBr)CN3C(=O)c1cc2cc(OC)c(OC)c(OC)c2[nH]1` (stereo not shown) [DC-89B2] here?
The antitumor activity was “show an antitumor activity against melanoma B-16”.

And the antibacterial activity [5]?
Its antibacterial activity is “exhibit an antibacterial activity against various bacteria”.
